Measured values from patent US20110301235A1, “ORGANOSELENIUM COMPOUNDS AND USES THEREOF” (Alquest Therapeutics, Inc., priority 2009, published 2011).
≈ marks a conversion by molar mass, not a printed value. Read-outs that look alike come from different tables or passages of the source.

Assay: Solubility measurements
Assay type: physicochemical
Conditions: kinetic from dmso stock
Description: A 2-fold serial dilution of compounds was prepared in 25 mM Hepes pH 7.4, 100 mM NaCl. After 30 minutes at room temperature, precipitates were removed by centrifugation at 18,000×G for 15 min. The supernatant was transferred to a microtiter plate and absorbance at 260 nm was determined. The concentration at which there was no longer a linear increase in absorbance was determined as the solubility limit. The compounds in the examples generally had better solubilities than the reference compound 2-phenyl-1,2-benzisoselenazol-3(2H)-one (66-100 μM), with the compounds described in Examples 1-9 having solubilities of 300, 300, 100, 66-100, 300, 300-600, 1000, 1000, and 1000 μM.

[1] = aqueous buffer, 25 mM Hepes pH 7.4, 100 mM NaCl, 30 minutes at room temperature, centrifuged, absorbance at 260 nm, read-out: solubility (solubility limit)

SMILES | solubility at 30 min [1] [µM] | solubility at 30 min (pH 7.4, aqueous buffer) [µM] | other results
O=c1c2ccccc2[se]n1-c1ccccc1 [2-phenyl-1,2-benzisoselenazol-3(2H)-one, reference compound] | – | – | solubility at 30 min (100 mM NaCl buffer, aqueous buffer, 25 mM Hepes pH 7.4, 100 mM NaCl, 30 minutes at room temperature, centrifuged, absorbance at 260 nm, read-out: solubility (solubility limit)): 66 to 100 µM (≈ 18.1 to 27.4 µg/mL)
Cl.NCCS[Se]c1ccccc1C(=O)Nc1ccccc1 [Example 5] | 300 | – | –
CCOC(=O)CNC(=O)[C@H](CS[Se]c1ccccc1C(=O)Nc1ccccc1)NC(=O)CC[C@H](N)C(=O)O.Cl [Example 8] | 1000 | – | –
CCOC(=O)[C@H](CS[Se]c1ccccc1C(=O)Nc1ccccc1)NC(C)=O [Example 4] | – | 66 to 100 (≈ 30.7 to 46.5 µg/mL) | –
Cl.N[C@@H](CCC(=O)N[C@@H](CS[Se]c1ccccc1C(=O)Nc1ccccc1)C(=O)NCC(=O)O)C(=O)O [Example 9] | 1000 | – | –
CC(C)(CO)[C@@H](O)C(=O)NCCC(=O)NCCS[Se]c1ccccc1C(=O)Nc1ccccc1 [Example 1] | – | 300 (≈ 166 µg/mL) | –
O=C(Nc1ccccc1)c1ccccc1[Se]SCCS(=O)(=O)O [Example 7] | – | 1000 (≈ 416 µg/mL) | –
CC(=O)N[C@@H](CS[Se]c1ccccc1C(=O)Nc1ccccc1)C(=O)O [Example 2] | – | 300 (≈ 131 µg/mL) | –
CCOC(=O)[C@@H](N)CS[Se]c1ccccc1C(=O)Nc1ccccc1.Cl [Example 3] | 100 | – | –
O=C(Nc1ccccc1)c1ccccc1[Se]SCCO [Example 6] | – | 300 to 600 (≈ 106 to 211 µg/mL) | –
